Experimental data: the NIST ThermoML archive (doi:10.1016/j.tca.2010.11.025)
Numbers after ± are expanded uncertainties.

Legend:
[1] = refractive index (Na D-line) (dimensionless); details: 298.15 K; 101.33 kPa; Liquid; Standard Abbe refractometry
[2] = 298.15 K; 101.33 kPa; Liquid; Pycnometric method

refractive index [1]: 1.4878 ± 0.0007
mass density [2]: 1060.06 ± 0.96 kg/m3
Compound: CN1CCCN(C)C1=O [1,3-dimethyl-3,4,5,6-tetrahydro-2(1H)-pyrimidinone]
